Results from US20230257396A1, “MACROCYCLES AND THEIR USE” (BLOSSOMHILL THERAPEUTICS, INC., priority 2020, published 2023).
Positions count from the first letter of the chain named.

What was measured:
Experiment in all cases: KINOMEscan kinase binding assay (Eurofins/DiscoveRx), % Ctrl
Settings in all cases: 1 μM
kinases [1] = target: T1, kinases (Homo sapiens, UniProt P07949, V804L)
T1 construct: purchased Eurofins/DiscoveRx; host or cells: E. coli BL21-derived host (T7 phage display) for most kinases; HEK-293 for the rest
How it was run: (§1)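 Competition binding, 1 h RT: phage-tagged or HEK-293-expressed DNA-tagged kinase + immobilized ligand + compound. Eluate kinase by qPCR. % Ctrl = (test − positive ctrl)/(negative ctrl − positive ctrl) × 100; lower means stronger binding.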

kinases [2] = target: T2, kinases (Homo sapiens, UniProt P00533, G719S)
T2 construct: purchased Eurofins/DiscoveRx; host or cells: E. coli BL21-derived host (T7 phage display) for most kinases; HEK-293 for the rest
How it was run: as §1

kinases [3] = target: T3, kinases (Homo sapiens, UniProt P00519, F317I)
T3 construct: purchased Eurofins/DiscoveRx; host or cells: E. coli BL21-derived host (T7 phage display) for most kinases; HEK-293 for the rest
How it was run: as §1

kinases [4] = target: T4, kinases (Homo sapiens, UniProt P36888, K663Q)
T4 construct: purchased Eurofins/DiscoveRx; host or cells: E. coli BL21-derived host (T7 phage display) for most kinases; HEK-293 for the rest
T4 sequence (P36888 27-993 K663Q): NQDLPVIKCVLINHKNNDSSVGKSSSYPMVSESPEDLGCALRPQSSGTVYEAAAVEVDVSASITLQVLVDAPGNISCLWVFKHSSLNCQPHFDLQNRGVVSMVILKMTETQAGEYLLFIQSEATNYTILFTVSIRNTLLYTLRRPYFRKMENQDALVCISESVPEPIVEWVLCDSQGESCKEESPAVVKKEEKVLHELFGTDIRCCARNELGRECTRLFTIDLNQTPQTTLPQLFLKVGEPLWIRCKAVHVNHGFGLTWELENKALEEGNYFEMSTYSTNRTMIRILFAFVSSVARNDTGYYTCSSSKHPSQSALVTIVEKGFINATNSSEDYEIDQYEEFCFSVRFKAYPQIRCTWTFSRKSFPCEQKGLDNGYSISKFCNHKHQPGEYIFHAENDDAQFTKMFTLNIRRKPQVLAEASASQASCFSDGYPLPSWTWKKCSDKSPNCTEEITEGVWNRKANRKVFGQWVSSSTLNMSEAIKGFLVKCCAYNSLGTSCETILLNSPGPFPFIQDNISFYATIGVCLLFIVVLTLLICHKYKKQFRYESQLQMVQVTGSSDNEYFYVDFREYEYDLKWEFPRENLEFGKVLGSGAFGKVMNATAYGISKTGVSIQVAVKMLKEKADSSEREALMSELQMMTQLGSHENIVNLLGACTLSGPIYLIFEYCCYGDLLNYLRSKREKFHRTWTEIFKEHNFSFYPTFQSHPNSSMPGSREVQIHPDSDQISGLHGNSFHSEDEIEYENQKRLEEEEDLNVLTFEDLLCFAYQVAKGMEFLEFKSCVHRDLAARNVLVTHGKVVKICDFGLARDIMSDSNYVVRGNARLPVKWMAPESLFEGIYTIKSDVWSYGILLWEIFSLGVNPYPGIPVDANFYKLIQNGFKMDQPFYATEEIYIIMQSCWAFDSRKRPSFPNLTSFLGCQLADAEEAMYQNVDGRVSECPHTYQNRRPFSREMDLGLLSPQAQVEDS
How it was run: as §1

kinases [5] = target: T5, kinases (Homo sapiens, UniProt P36888, N841I)
T5 construct: purchased Eurofins/DiscoveRx; host or cells: E. coli BL21-derived host (T7 phage display) for most kinases; HEK-293 for the rest
T5 sequence (P36888 27-993 N841I): T4 sequence (P36888 27-993 K663Q) with Q637K, N815I
How it was run: as §1

kinases [6] = target: T6, kinases (Homo sapiens, UniProt P00533, G719C)
T6 construct: purchased Eurofins/DiscoveRx; host or cells: E. coli BL21-derived host (T7 phage display) for most kinases; HEK-293 for the rest
How it was run: as §1

T1 sequence (P07949 29-1114 V804L): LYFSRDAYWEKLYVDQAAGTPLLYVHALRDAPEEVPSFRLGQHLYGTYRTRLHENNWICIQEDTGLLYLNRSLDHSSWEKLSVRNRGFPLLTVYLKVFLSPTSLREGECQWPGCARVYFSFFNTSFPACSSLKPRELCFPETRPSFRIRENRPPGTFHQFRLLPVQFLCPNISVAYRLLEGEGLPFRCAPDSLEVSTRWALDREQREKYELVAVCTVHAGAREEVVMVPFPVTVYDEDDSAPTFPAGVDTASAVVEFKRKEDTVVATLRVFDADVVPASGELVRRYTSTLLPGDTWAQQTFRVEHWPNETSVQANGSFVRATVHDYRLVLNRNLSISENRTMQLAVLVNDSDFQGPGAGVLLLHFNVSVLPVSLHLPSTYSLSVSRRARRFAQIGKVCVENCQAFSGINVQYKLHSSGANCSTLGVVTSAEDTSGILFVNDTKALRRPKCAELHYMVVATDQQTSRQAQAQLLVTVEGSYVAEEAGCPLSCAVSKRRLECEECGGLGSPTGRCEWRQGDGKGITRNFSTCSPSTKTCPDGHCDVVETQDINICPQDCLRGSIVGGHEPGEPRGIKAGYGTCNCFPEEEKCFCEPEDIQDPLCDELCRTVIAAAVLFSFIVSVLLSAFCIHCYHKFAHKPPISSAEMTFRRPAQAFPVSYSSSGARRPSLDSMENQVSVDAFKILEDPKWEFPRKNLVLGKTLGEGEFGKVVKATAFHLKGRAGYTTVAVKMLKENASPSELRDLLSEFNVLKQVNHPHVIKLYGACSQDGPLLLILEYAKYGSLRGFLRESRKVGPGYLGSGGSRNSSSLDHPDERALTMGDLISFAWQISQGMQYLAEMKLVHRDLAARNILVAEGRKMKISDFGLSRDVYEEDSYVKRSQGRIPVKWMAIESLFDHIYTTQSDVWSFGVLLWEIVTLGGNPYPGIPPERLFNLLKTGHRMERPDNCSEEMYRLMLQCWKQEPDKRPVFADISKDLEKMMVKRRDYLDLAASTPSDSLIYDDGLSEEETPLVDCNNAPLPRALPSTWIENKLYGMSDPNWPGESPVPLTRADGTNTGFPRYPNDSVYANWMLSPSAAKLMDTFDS
T3 sequence (P00519 whole entry F317I): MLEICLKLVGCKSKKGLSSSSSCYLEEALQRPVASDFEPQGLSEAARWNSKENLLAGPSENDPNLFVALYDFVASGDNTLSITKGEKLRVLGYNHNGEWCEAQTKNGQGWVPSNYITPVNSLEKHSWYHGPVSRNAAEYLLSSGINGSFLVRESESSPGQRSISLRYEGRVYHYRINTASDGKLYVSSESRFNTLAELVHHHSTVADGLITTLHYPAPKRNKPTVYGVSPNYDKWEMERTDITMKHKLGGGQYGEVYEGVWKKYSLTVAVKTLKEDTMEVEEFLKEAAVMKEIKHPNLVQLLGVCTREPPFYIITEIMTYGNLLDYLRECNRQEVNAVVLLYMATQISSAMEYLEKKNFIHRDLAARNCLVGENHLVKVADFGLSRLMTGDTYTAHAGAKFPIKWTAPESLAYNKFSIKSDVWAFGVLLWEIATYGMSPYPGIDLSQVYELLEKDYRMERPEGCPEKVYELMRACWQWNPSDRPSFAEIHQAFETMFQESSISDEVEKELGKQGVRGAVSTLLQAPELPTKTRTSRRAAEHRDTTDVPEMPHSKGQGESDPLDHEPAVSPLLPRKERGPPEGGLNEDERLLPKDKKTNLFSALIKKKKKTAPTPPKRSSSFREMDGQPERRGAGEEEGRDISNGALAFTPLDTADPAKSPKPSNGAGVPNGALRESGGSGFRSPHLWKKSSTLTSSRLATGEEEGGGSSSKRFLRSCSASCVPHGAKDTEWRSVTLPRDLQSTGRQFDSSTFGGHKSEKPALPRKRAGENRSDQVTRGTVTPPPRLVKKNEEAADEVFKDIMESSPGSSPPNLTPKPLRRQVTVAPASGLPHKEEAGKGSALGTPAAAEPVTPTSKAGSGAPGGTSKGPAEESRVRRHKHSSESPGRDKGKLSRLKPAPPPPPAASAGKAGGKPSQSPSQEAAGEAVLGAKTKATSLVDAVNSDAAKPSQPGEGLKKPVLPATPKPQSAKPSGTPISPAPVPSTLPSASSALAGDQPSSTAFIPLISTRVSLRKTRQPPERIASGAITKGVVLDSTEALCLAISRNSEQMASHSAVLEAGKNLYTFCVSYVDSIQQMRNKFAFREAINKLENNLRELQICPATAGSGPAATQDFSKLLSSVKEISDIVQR

Row | SMILES | % Ctrl, RET(V804L) (kinases [1]; target RET(V804L)) | % Ctrl, EGFR(G719S) (kinases [2]; target EGFR(G719S)) | % Ctrl, ABL1(F317I)-nonphosphorylated (kinases [3]; target ABL1(F317I)-nonphosphorylated) | % Ctrl, ABL1(F317I)-phosphorylated (kinases [3]; target ABL1(F317I)-phosphorylated) | % Ctrl, FLT3(K663Q) (kinases [4]; target FLT3(K663Q)) | % Ctrl, FLT3(N841I) (kinases [5]; target FLT3(N841I)) | % Ctrl, EGFR(G719C) (kinases [6]; target EGFR(G719C)) | % Ctrl, RET(V804L) (kinases [1]; RET(V804L)) | % Ctrl, EGFR(G719S) (kinases [2]; EGFR(G719S)) | % Ctrl, ABL1(F317I)-nonphosphorylated (kinases [3]; ABL1(F317I)-nonphosphorylated) | % Ctrl, ABL1(F317I)-phosphorylated (kinases [3]; ABL1(F317I)-phosphorylated) | % Ctrl, FLT3(K663Q) (kinases [4]; FLT3(K663Q)) | % Ctrl, FLT3(N841I) (kinases [5]; FLT3(N841I)) | % Ctrl, EGFR(G719C) (kinases [6]; EGFR(G719C))
1 | Cc1cc2c([nH]1)/C=C1\C(=O)Nc3cnc(cc31)-c1cn[nH]c1CNCCN(C)C2=O [Ex. 55, [3a(4)Z]-6,9-dimethyl-9,10,11,12,13,14-hexahydro-17,1-(azenometheno)pyrazolo[4,3-m]dipyrrolo[3,2-f:3′,4′-i][1,4]diazacyclopentadecine-3,8(2,5H)-dione] | 0.3 % Ctrl | 67 % Ctrl | 66 % Ctrl | 41 % Ctrl | 1.2 % Ctrl | 0 % Ctrl | 68 % Ctrl |  |  |  |  |  |  | 
2 | Cc1cc2c([nH]1)/C=C1\C(=O)Nc3ccc(cc31)O[C@@H](C)COCCN(C)C2=O [Ex. 92, [10S,16a(17)Z]-2,5,10-trimethyl-6,7,9,10-tetrahydro-1H-12,14-(ethanediylidene)dipyrrolo[3,2-i:3′,4′-l][1,4,7]dioxazacyclopentadecine-4,16(5H,15H)-dione] |  |  |  |  |  |  |  | 43 % Ctrl | 98 % Ctrl | 22 % Ctrl | 89 % Ctrl | 57 % Ctrl | 20 % Ctrl | 100 % Ctrl
3 | Cc1cc2c([nH]1)/C=C1\C(=O)Nc3ccc(cc31)-c1cnn(C)c1COCCN(C)C2=O [Ex. 124, [3a(4)Z]-6,9,14-trimethyl-10,11,13,14-tetrahydro-2H-1,17-(ethanediylidene)pyrazolo[4,3-m]dipyrrolo[3,2-f:3′,4′-i][1,4]oxazacyclopentadecine-3,8(5H,9H)-dione] |  |  |  |  |  |  |  | 0 % Ctrl | 97 % Ctrl | 0 % Ctrl | 1.5 % Ctrl | 13 % Ctrl | 0 % Ctrl | 87 % Ctrl
4 | Cc1cc2c([nH]1)/C=C1\C(=O)Nc3ccc(cc31)-c1cnn(C)c1CNCCN(C)C2=O [Ex. 125, [3a(4)Z]-6,9,14-trimethyl-9,10,11,12,13,14-hexahydro-1,17-(ethanediylidene)pyrazolo[4,3-m]dipyrrolo[3,2-f:3′,4′-i][1,4]diazacyclopentadecine-3,8(2H,5H)-dione] |  |  |  |  |  |  |  | 0 % Ctrl | 88 % Ctrl | 0 % Ctrl | 0.75 % Ctrl | 1.4 % Ctrl | 0 % Ctrl | 8 % Ctrl
5 | Cc1cc2c([nH]1)/C=C1\C(=O)Nc3ccc(cc31)-c1cnn(C)c1CN(C)CCN(C)C2=O [Ex. 126, [3a(4)Z]-6,9,12,14-tetramethyl-9,10,11,12,13,14-hexahydro-1,17-(ethanediylidene)pyrazolo[4,3-m]dipyrrolo[3,2-f:3′,4′-i][1,4]diazacyclopentadecine-3,8(2H,5H)-dione] |  |  |  |  |  |  |  | 0 % Ctrl | 57 % Ctrl | 0 % Ctrl | 0.3 % Ctrl | 4.2 % Ctrl | 0 % Ctrl | 86 % Ctrl
6 | Cc1cc2c([nH]1)/C=C1\C(=O)Nc3ccc(cc31)-c1c(C)n[nH]c1CNCCN(C)C2=O [Ex. 127, [3a(4)Z]-6,9,16-trimethyl-9,10,11,12,13,14-hexahydro-1,17-(ethanediylidene)pyrazolo[4,3-m]dipyrrolo[3,2-f:3′,4′-i][1,4]diazacyclopentadecine-3,8(2H,5H)-dione] |  |  |  |  |  |  |  | 0.55 % Ctrl | 72 % Ctrl | 2.6 % Ctrl | 5.5 % Ctrl | 5.3 % Ctrl | 0.35 % Ctrl | 90 % Ctrl
7 | Cc1cc2c([nH]1)/C=C1\C(=O)Nc3ccc(cc31)-c1c(noc1C)COCCN(C)C2=O [Ex. 128, [3a(4)Z]-6,9,16-trimethyl-1,11-dihydro-2H,13H-1,17-(ethanediylidene)[1,4]oxazolo[4,3-m]dipyrrolo[3,2-f:3′,4′-i][1,4]oxazacyclopentadecine-3,8(5H,9H)-dione] |  |  |  |  |  |  |  | 56 % Ctrl | 97 % Ctrl | 100 % Ctrl | 55 % Ctrl | 77 % Ctrl | 36 % Ctrl | 97 % Ctrl
8 | Cc1cc2c([nH]1)/C=C1\C(=O)Nc3ccc(cc31)OCCOCCNC2=O [Ex. 129, [16a(17)Z]-2-methyl-6,7,9,10-tetrahydro-1H-12,14-(ethanediylidene)dipyrrolo[3,2-i:3′,4′-l][1,4,7]dioxazacyclopentadecine-4,16(5H,15H)-dione] |  |  |  |  |  |  |  | 96 % Ctrl | 97 % Ctrl | 94 % Ctrl | 100 % Ctrl | 100 % Ctrl | 68 % Ctrl | 100 % Ctrl
